Drawing on US11530244B2, “Cyclic polypeptides for PCSK9 inhibition” (priority 2018, dated 2022), this text covers IC50 for 18 compounds.

Starred links: 1 amine or outer side, 2 acyl side, 3 side chain; linkers in the order of their positions; H or OH if unused. Positions of bridges follow the written chain, without caps; N, C: chain ends. Non-standard residues stand in square brackets, D forms with d. Residues, ends and D or L forms follow the SMILES beside them. *: point of attachment. NHCH2C6H4(p)CH2CH2NH = c1cc(CN[*:1])ccc1CCN[*:2]; Phe(4-COOH) = N[C@@H](Cc1ccc(C(=O)O)cc1)C(=O)O; Trp(5-F) = N[C@@H](Cc1c[nH]c2ccc(F)cc12)C(=O)O; Acetyl(2-(4-imidazolyl)) = O=C(Cc1c[nH]cn1)*; dPro(cis-4-NH2) = N[C@H]1CN[C@@H](C(=O)O)C1; X3 = O=C(CCSCc1cc(F)cc(CSCCN[*:1])c1)[*:2]; Pro(cis-4-F) = O=C(O)[C@@H]1C[C@H](F)CN1; X4 = O=C(CCSCc1cccc(CSCCN[*:1])c1)[*:2]; Orn(N3) = [N-]=[N+]=NCCC[C@H](N)C(=O)O; mXylylene = c1cc(C[*:1])cc(C[*:2])c1; AEF = NCCOc1ccc(C[C@H](N)C(=O)O)cc1; X53 = C#CCCC[C@H](N[*:1])C(=O)[*:2]; Adipoyl = O=C(CCCCC(=O)[*:2])[*:1]; Glutaryl = O=C(CCCC(=O)[*:2])[*:1]; cisHyp = O=C(O)[C@@H]1C[C@H](O)CN1; X7 = O=C(Cc1ccc(CN[*:1])cc1)[*:2]; Hyp = O=C(O)[C@@H]1C[C@@H](O)CN1; Aad = N[C@@H](CCCC(=O)O)C(=O)O; aThr = C[C@H](O)[C@H](N)C(=O)O; Suc = O=C(CCC(=O)[*:2])[*:1]; X63 = c1ncc(C[*:2])nc1C[*:1]; αMeP = C[C@@]1(C(=O)O)CCCN1; 3Amb = NCc1cccc(C(=O)O)c1; Dap = NC[C@H](N)C(=O)O; X2 = O=C(C[*:2])[*:1]; Mpa = O=C(O)CCS

Sequence of PCSK9 (Q8NBP7 153-692): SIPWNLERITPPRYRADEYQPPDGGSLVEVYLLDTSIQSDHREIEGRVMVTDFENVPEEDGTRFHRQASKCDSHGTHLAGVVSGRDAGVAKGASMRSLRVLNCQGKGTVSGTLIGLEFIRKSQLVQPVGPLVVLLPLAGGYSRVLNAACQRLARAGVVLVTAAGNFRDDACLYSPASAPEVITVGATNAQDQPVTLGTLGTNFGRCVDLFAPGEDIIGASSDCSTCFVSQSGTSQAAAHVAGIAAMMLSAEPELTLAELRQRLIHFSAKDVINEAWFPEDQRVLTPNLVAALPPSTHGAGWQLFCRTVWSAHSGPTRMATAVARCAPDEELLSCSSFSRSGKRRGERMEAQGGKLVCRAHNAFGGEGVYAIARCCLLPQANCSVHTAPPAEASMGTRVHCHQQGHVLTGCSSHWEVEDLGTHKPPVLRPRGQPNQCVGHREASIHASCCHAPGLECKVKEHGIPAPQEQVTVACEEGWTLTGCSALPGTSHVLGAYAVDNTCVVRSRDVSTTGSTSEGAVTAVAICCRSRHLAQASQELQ

The first assay addresses PCSK9 (Homo sapiens (Human), UniProt Q8NBP7). Nature of the assay: PCSK9 Alexa FRET Standard assay (displacement of AlexaFluor647 tagged cyclic peptide Reagent A). It is filed as binding. Particulars: IC50, PCSK9 Alexa FRET Standard assay, 0.5 nM PCSK9, 20 nM AF cyclic peptide Reagent A. The procedure:
A solution containing 1 nM biotinylated PCSK9+2.5 nM Lance Streptavidin Europium (Strep-Eu) was made in 50 mM HEPES pH 7.4, 0.15 M NaCl, 5 mM CaCl2), 0.01% BSA, and 0.01% Surfactant P20. A separate solution containing 40 nM of the AlexaFluor tagged cyclic peptide was made in the same buffer system. An Echo was used to transfer 0.750 ul of compound to an assay plate followed by the addition of 15 ul of PCSK9+Stept-Eu and 15 ul of AF peptide. The final assay volume was 30.750 ul containing 0.5 nM PCSK9, 1.25 nM Strep-Eu, and 20 nM AF cyclic peptide. The reaction was incubated at room temperature for at least two hours prior to fluorescence measurements using an Envision Multilabel Reader. IC50 values were determined by fitting data to a sigmoidal dose-response curve using nonlinear regression. Ki was then calculated from the IC50 and the KD of AF cyclic peptide. Counts (B-counts) of the europium-labeled PCSK9 were followed to observe if compounds were […]. A fall off of the B-counts likely indicated a false positive of inhibition. Data from this procedure was reported as “A=‘numerical value’ (nanomolar)”
What is called IC50 is the midpoint of a concentration-inhibition curve. The compound `COc1ccc(C[C@@H]2NC(=O)[C@H]([C@@H](C)O)NC(=O)[C@@H]3C[C@H](F)CN3C(=O)[C@H](Cc3c[nH]c4ccc(F)cc34)NC(=O)[C@H](Cc3c[nH]c4ccc(F)cc34)NC(=O)[C@@H](C)NC(=O)[C@H](CCCCN)NC(=O)[C@@H](NC(=O)Cc3cnc[nH]3)CC(=O)NCCOc3ccc(cc3)C[C@@H](C(N)=O)NC(=O)[C@]3(C)CCCN3C2=O)cc1` [Compound 105] ({Acetyl(2-(4-imidazolyl))}-DK[dA][Trp(5-F)][Trp(5-F)][Pro(cis-4-F)]TY(Me)[αMeP][AEF]-NH2; lactam 1-10) gave an IC50 of 1 to 12.1 µM.

The assay is the same for the next values; noted with them: PCSK9 Alexa FRET Standard assay, 0.5 nM PCSK9, 20 nM AF cyclic peptide Reagent A; read-out: IC50.
For `C#CCCC[C@@H]1NC(=O)[C@H](Cc2c[nH]c3ccc(F)cc23)NC(=O)[C@H](CCCN=[N+]=[N-])NC(=O)[C@@H](C)NC(=O)[C@H](C)NC(=O)CCSCc2cccc(c2)CSCCNC(=O)[C@]2(C)CCCN2C(=O)[C@H](Cc2ccc(OC)cc2)NC(=O)[C@H]([C@@H](C)O)NC1=O` [Compound 078] (cyclo(A[dA][Orn(N3)][Trp(5-F)][X53]TY(Me)[αMeP][X4])), the IC50 lay within 0.1 to 1 µM.

With `COc1ccc(C[C@@H]2NC(=O)[C@H]([C@@H](C)O)NC(=O)[C@@H]3C[C@H](F)CN3C(=O)[C@H](Cc3c[nH]c4ccc(F)cc34)NC(=O)[C@H](Cc3c[nH]c4ccc(F)cc34)NC(=O)[C@@H](C)NC(=O)[C@H](CCCCN)NC(=O)[C@@H](NC(C)=O)CC(=O)NCc3ccccc3C[C@@H](C(N)=O)NC(=O)[C@]3(C)CCCN3C2=O)cc1` [Compound 079], the IC50 fell in the range of 1 to 12.1 µM.

As for `COc1ccc(C[C@@H]2NC(=O)[C@@H]([C@H](C)O)NC(=O)[C@@H]3C[C@H](F)CN3C(=O)[C@H](Cc3c[nH]c4ccc(F)cc34)NC(=O)[C@H](Cc3c[nH]c4ccc(F)cc34)NC(=O)[C@@H](C)NC(=O)Cc3ccc(cc3)CNC(=O)c3ccc(cc3)C[C@@H](C(N)=O)NC(=O)[C@]3(C)CCCN3C2=O)cc1` [Compound 080] ([X7][dA][Trp(5-F)][Trp(5-F)][Pro(cis-4-F)][dT]Y(Me)[αMeP][Phe(4-COOH)]-NH2; lactam N-9), the IC50 was 1 to 12.1 µM.

Consider `COc1ccc(C[C@@H]2NC(=O)[C@H]([C@@H](C)O)NC(=O)[C@@H]3C[C@H](F)CN3C(=O)[C@H](Cc3c[nH]c4ccc(F)cc34)NC(=O)[C@H](Cc3c[nH]c4ccc(F)cc34)NC(=O)[C@@H](C)NC(=O)CCCC(=O)NCCOc3ccc(cc3)C[C@@H](C(N)=O)NC(=O)[C@]3(C)CCCN3C2=O)cc1` [Compound 081] ([dA][Trp(5-F)][Trp(5-F)][Pro(cis-4-F)]TY(Me)[αMeP][AEF]-NH2; linker N-8 via Glutaryl), for which the IC50 is 0.1 to 1 µM.

Regarding `COc1ccc(C[C@@H]2NC(=O)[C@@H]([C@H](C)O)NC(=O)[C@H]3C[C@@H](N)CN3C(=O)[C@H](Cc3c[nH]c4ccc(F)cc34)NC(=O)[C@H](Cc3c[nH]c4ccc(F)cc34)NC(=O)[C@@H](C)NC(=O)[C@H](CCCCN)NC(=O)CCSCc3cc(F)cc(c3)CSCCNC(=O)[C@]3(C)CCCN3C2=O)cc1` [Compound 082] (cyclo(K[dA][Trp(5-F)][Trp(5-F)][dPro(cis-4-NH2)][dT]Y(Me)[αMeP][X3])), the IC50 lay within 0.1 to 1 µM.

`COc1ccc(C[C@@H]2NC(=O)[C@@H]([C@H](C)O)NC(=O)[C@H]3C[C@@H](N)CN3C(=O)[C@H](Cc3c[nH]c4ccc(F)cc34)NC(=O)[C@H](Cc3c[nH]c4ccc(F)cc34)NC(=O)[C@@H](C)NC(=O)[C@H](CCCCN)NC(=O)CCSCc3cccc(c3)CSCCNC(=O)[C@]3(C)CCCN3C2=O)cc1` [Compound 083] (cyclo(K[dA][Trp(5-F)][Trp(5-F)][dPro(cis-4-NH2)][dT]Y(Me)[αMeP][X4])): the IC50 is 0.1 to 1 µM.

For the compound `COc1ccc(C[C@@H]2NC(=O)[C@@H]([C@H](C)O)NC(=O)[C@@H]3C[C@@H](O)CN3C(=O)[C@H](Cc3c[nH]c4ccc(F)cc34)NC(=O)[C@H](Cc3c[nH]c4ccc(F)cc34)NC(=O)[C@@H](C)NC(=O)[C@H](CCCCN)NC(=O)CCSCc3cccc(c3)CSCCNC(=O)[C@]3(C)CCCN3C2=O)cc1` [Compound 084] (cyclo([Hyp][dT]Y(Me)[αMeP][X4]K[dA][Trp(5-F)][Trp(5-F)])), the IC50 lay in the range of 0.1 to 1 µM.

As to `COc1ccc(C[C@@H]2NC(=O)[C@@H]([C@H](C)O)NC(=O)[C@@H]3C[C@H](O)CN3C(=O)[C@H](Cc3c[nH]c4ccc(F)cc34)NC(=O)[C@H](Cc3c[nH]c4ccc(F)cc34)NC(=O)[C@@H](C)NC(=O)[C@H](CCCCN)NC(=O)CCSCc3cccc(c3)CSCCNC(=O)[C@]3(C)CCCN3C2=O)cc1` [Compound 085] (cyclo(K[dA][Trp(5-F)][Trp(5-F)][cisHyp][dT]Y(Me)[αMeP][X4])), the IC50 was 21 to 50 µM.

`COc1ccc(C[C@@H]2NC(=O)[C@@H]([C@H](C)O)NC(=O)[C@@H]3C[C@H](O)CN3C(=O)[C@H](Cc3c[nH]c4ccc(F)cc34)NC(=O)[C@H](Cc3c[nH]c4ccc(F)cc34)NC(=O)[C@@H](C)NC(=O)[C@H](CCCCN)NC(=O)CCSCc3cc(F)cc(c3)CSCCNC(=O)[C@]3(C)CCCN3C2=O)cc1` [Compound 086] (cyclo(K[dA][Trp(5-F)][Trp(5-F)][cisHyp][dT]Y(Me)[αMeP][X3])): the IC50 was 21 to 50 µM.

Consider `COc1ccc(C[C@@H]2NC(=O)[C@@H]([C@H](C)O)NC(=O)[C@@H]3C[C@@H](O)CN3C(=O)[C@H](Cc3c[nH]c4ccc(F)cc34)NC(=O)[C@H](Cc3c[nH]c4ccc(F)cc34)NC(=O)[C@@H](C)NC(=O)[C@H](CCCCN)NC(=O)CCSCc3cc(F)cc(c3)CSCCNC(=O)[C@]3(C)CCCN3C2=O)cc1` [Compound 087] (cyclo([Hyp][dT]Y(Me)[αMeP][X3]K[dA][Trp(5-F)][Trp(5-F)])), for which the concentration for half-maximal inhibition (IC50) fell in the range of 21 to 50 µM.

Take `C[C@@]12CCCN1C(=O)[C@H](Cc1ccc(O)cc1)NC(=O)c1cccc(c1)CNC(=O)[C@H](Cc1c[nH]c3ccc(F)cc13)NC(=O)[C@H](Cc1c[nH]c3ccc(F)cc13)NC(=O)CNC(=O)[C@H](CCCCN)NC(=O)CCSCc1cccc(c1)CSC[C@@H](C(N)=O)NC2=O` [Compound 088] ([Mpa]KG[Trp(5-F)][Trp(5-F)][3Amb]Y[αMeP]C-NH2; linker 1-9 via mXylylene): the IC50 is 0.1 to 1 µM.

For `COc1ccc(C[C@@H]2NC(=O)[C@H]([C@@H](C)O)NC(=O)[C@@H]3CCCN3C(=O)[C@H](Cc3c[nH]c4ccc(F)cc34)NC(=O)[C@H](Cc3c[nH]c4ccc(F)cc34)NC(=O)[C@@H](C)NC(=O)[C@H](CCCCN)NC(=O)CCSCc3cncc(n3)CSC[C@@H](C(N)=O)NC(=O)[C@]3(C)CCCN3C2=O)cc1` [Compound 090] ([Mpa]K[dA][Trp(5-F)][Trp(5-F)]PTY(Me)[αMeP]C-NH2; linker 1-10 via X63), the IC50 was 1 to 12.1 µM.

With `COc1ccc(C[C@@H]2NC(=O)[C@H]([C@@H](C)O)NC(=O)[C@@H]3C[C@H](F)CN3C(=O)[C@H](Cc3c[nH]c4ccc(F)cc34)NC(=O)[C@H](Cc3c[nH]c4ccc(F)cc34)NC(=O)[C@@H](C)NC(=O)[C@H](CCCCN)NC(=O)[C@@H](NC(C)=O)CNC(=O)COc3ccc(cc3)C[C@@H](C(N)=O)NC(=O)[C@]3(C)CCCN3C2=O)cc1` [Compound 094] (Ac-[Dap]K[dA][Trp(5-F)][Trp(5-F)][Pro(cis-4-F)]TY(Me)[αMeP]Y-NH2; linker 1-10 via X2), the IC50 was 21 to 50 µM.

Turning to `COc1ccc(C[C@@H]2NC(=O)[C@H]([C@@H](C)O)NC(=O)[C@@H]3C[C@H](F)CN3C(=O)[C@H](Cc3c[nH]c4ccc(F)cc34)NC(=O)[C@H](Cc3c[nH]c4ccc(F)cc34)NC(=O)[C@@H](C)NC(=O)[C@H](CCCCN)NC(=O)[C@@H](NC(C)=O)CCCC(=O)NCc3ccc(cc3)CCNC(=O)[C@]3(C)CCCN3C2=O)cc1` [Compound 096] (Ac-[Aad]K[dA][Trp(5-F)][Trp(5-F)][Pro(cis-4-F)]TY(Me)[αMeP]; linker 1-C via NHCH2C6H4(p)CH2CH2NH), the IC50 lay in the range of 0.1 to 1 µM.

Regarding `COc1ccc(C[C@@H]2NC(=O)[C@H]([C@@H](C)O)NC(=O)[C@@H]3C[C@H](F)CN3C(=O)[C@H](Cc3c[nH]c4ccc(F)cc34)NC(=O)[C@H](Cc3c[nH]c4ccc(F)cc34)NC(=O)[C@@H](C)NC(=O)[C@H](CCCCN)NC(=O)CCC(=O)NCCOc3ccc(cc3)C[C@@H](C(N)=O)NC(=O)[C@]3(C)CCCN3C2=O)cc1` [Compound 098] (K[dA][Trp(5-F)][Trp(5-F)][Pro(cis-4-F)]TY(Me)[αMeP][AEF]-NH2; linker N-9 via Suc), the IC50 lay within 21 to 50 µM.

For `COc1ccc(C[C@@H]2NC(=O)[C@H]([C@H](C)O)NC(=O)[C@@H]3C[C@H](F)CN3C(=O)[C@H](Cc3c[nH]c4ccc(F)cc34)NC(=O)[C@H](Cc3c[nH]c4ccc(F)cc34)NC(=O)[C@@H](C)NC(=O)CCCCC(=O)NCCOc3ccc(cc3)C[C@@H](C(N)=O)NC(=O)[C@]3(C)CCCN3C2=O)cc1` [Compound 099] ([dA][Trp(5-F)][Trp(5-F)][Pro(cis-4-F)][aThr]Y(Me)[αMeP][AEF]-NH2; linker N-8 via Adipoyl), the IC50 was in the range of 21 to 50 µM.

With `C[C@@]12CCCN1C(=O)[C@H](Cc1ccc(O)cc1)NC(=O)CN1CCCC[C@H](NC(=O)[C@H](Cc3c[nH]c4ccc(F)cc34)NC(=O)[C@H](Cc3c[nH]c4ccc(F)cc34)NC(=O)CNC(=O)[C@H](CCCCN)NC(=O)CCSCc3cccc(c3)CSC[C@@H](C(N)=O)NC2=O)C1=O` [Compound 104], the IC50 fell in the range of 21 to 50 µM.
